Test system: cs-oxidant-induced albumin oxidation
Assay: Protection of cs-oxidant-induced albumin oxidation by chemical agents
Type: biochemical, bovine
Settings: for inhibition of BSA oxidation: concentration ranging between 500 μM and 1 mM
Protocol: The incubation system contained 1 mg BSA and 50 μl of cs solution or its equivalent amounts obtained at different stages of purification in a final volume of 200 μl of 50 mM potassium phosphate buffer, pH 7.4. The incubation was carried out at 37° C. for 1 hour. Protein carbonyl was measured by reaction with 2,4-dinitrophenyl hydrazine (DNPH) following the method of Levine et al (Methods Enzymol. 186: 464-478, 1990) similar to that done before in our laboratory (Panda et al., Free Radic. Biol. & Med. 27: 1064-1079, 1999). […] To this washed pellet was then added 500 μl of 10 mM DNPH solution in 2M HCl and incubated at 37° C. for 1 h with occasional vortexing. Thereafter, the protein was again precipitated with 500 μl of cold 20% trichloroacetic acid solution and the pellet was first washed with 500 μl of 10% trichloroacetic acid solution followed by three successive washes with 1 ml of a mixture of ethanol: ethyl acetate (1:1, v/v). Finally, the washed precipitate was dissolved in 1 ml of 6M guanidium hydrochloride (pH 2.3) and the absorbance was measured at 390 nm using a double beam Hitachi spectrophotometer model U 3020 against a reagent blank of 2M HCl. The results were expressed as n moles of phenylhydrazones formed per milligram protein using a molar extinction coefficient of 22,000.
The chemical compounds/agents include, besides ascorbic acid, tartaric acid, citric acid, oxalic cid, glutathione, tea extract and individual components of tea (Table. 4).
The incubation system and carbonyl estimation are described in the text.

## N[C@@H](CCC(=O)N[C@@H](CS)C(=O)NCC(=O)O)C(=O)O [Glutathione]
Agent 1 mM
  % Protection: 37%
Agent 1 mM, listed as glutanthione
  % Protection: up to 37%

## O=C(O)CCC(=O)O [Succinic acid]
Agent 1 μM (so in the source)
  % Protection: 60%
Agent 1 mM
  % Protection: 60%
Agent 1 mM, listed as succinic acid
  % Protection: up to 60%

## O=C(O)C(=O)O [Oxalic acid]
Agent 500 μM
  % Protection: 53%
Agent 500 μM, listed as oxalic acid
  % Protection: up to 53%

## NCCCC[C@H](N)C(=O)O [Lysine]
Agent 1 mM
  % Protection: 35%
Agent 1 mM, listed as lysine
  % Protection: up to 35%

## O=C(O)C(O)C(O)C(=O)O (centres unmarked) [Tartaric acid]
Agent 500 μM
  % Protection: 67%
Agent 1 mM
  % Protection: 75%
  inhibition of BSA oxidation: up to 75%

## Catechin
Agent 750 μg
  % Protection: 54%
Agent 750 μg, listed as catechin
  % Protection: up to 54%

## N[C@@H](Cc1c[nH]cn1)C(=O)O [Histidine]
Agent 1 mM
  % Protection: 67%
Agent 1 mM, listed as histidine
  % Protection: up to 67%

## O=C(O)CC(O)(CC(=O)O)C(=O)O [Citric acid]
Agent 500 μM
  % Protection: 67%
Agent 1 mM
  % Protection: 75%
  inhibition of BSA oxidation: up to 75%

## O=C1O[C@H]([C@@H](O)CO)C(O)=C1O [Ascorbic acid]
Agent 100 μM
  % Protection: 76%
Agent 100 μM, listed as ascorbic acid
  % Protection: up to 76%

## Oc1cc(O)c2c(c1)O[C@H](c1cc(O)c(O)c(O)c1)[C@H](O)C2 [Epigallocatechin]
Agent 140 μg
  % Protection: 95%
Agent 140 μg, listed as epigallocatechin
  % Protection: up to 95%
